From patent EP4722219A1 (Gan & Lee Pharmaceuticals Co., Ltd., priority 2023, dated 2024)

Experiments:
Assay type in all cases: cell-based
SMARCA2 [1] = target: T1, SMARCA2 (Homo sapiens, UniProt P51531); experiment: SMARCA2 degradation in SW1573 cells (Western blot); design: endogenous in cells; host or cells: SW1573; conditions: 24 hours
Procedure, shortened: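 Cells were treated for 24 h at 80 nM or 1 nM final compound (0.05% DMSO). SMARCA2 and SMARCA4 in RIPA lysates were detected by SDS-PAGE/Western blot with GAPDH as loading control. Band intensities were quantified by densitometry to give percentage degradation.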

SMARCA4 [2] = target: T2, SMARCA4 (Homo sapiens, UniProt P51532); experiment: SMARCA4 degradation in SW1573 cells (Western blot); design: endogenous in cells; host or cells: SW1573; conditions: 24 hours; for Dmax at 0.001 µM / Dmax at 0.08 µM: read-out: Degradation rate of SMARCA4 in SW1573 cells (%)
T2 sequence (P51532 whole entry): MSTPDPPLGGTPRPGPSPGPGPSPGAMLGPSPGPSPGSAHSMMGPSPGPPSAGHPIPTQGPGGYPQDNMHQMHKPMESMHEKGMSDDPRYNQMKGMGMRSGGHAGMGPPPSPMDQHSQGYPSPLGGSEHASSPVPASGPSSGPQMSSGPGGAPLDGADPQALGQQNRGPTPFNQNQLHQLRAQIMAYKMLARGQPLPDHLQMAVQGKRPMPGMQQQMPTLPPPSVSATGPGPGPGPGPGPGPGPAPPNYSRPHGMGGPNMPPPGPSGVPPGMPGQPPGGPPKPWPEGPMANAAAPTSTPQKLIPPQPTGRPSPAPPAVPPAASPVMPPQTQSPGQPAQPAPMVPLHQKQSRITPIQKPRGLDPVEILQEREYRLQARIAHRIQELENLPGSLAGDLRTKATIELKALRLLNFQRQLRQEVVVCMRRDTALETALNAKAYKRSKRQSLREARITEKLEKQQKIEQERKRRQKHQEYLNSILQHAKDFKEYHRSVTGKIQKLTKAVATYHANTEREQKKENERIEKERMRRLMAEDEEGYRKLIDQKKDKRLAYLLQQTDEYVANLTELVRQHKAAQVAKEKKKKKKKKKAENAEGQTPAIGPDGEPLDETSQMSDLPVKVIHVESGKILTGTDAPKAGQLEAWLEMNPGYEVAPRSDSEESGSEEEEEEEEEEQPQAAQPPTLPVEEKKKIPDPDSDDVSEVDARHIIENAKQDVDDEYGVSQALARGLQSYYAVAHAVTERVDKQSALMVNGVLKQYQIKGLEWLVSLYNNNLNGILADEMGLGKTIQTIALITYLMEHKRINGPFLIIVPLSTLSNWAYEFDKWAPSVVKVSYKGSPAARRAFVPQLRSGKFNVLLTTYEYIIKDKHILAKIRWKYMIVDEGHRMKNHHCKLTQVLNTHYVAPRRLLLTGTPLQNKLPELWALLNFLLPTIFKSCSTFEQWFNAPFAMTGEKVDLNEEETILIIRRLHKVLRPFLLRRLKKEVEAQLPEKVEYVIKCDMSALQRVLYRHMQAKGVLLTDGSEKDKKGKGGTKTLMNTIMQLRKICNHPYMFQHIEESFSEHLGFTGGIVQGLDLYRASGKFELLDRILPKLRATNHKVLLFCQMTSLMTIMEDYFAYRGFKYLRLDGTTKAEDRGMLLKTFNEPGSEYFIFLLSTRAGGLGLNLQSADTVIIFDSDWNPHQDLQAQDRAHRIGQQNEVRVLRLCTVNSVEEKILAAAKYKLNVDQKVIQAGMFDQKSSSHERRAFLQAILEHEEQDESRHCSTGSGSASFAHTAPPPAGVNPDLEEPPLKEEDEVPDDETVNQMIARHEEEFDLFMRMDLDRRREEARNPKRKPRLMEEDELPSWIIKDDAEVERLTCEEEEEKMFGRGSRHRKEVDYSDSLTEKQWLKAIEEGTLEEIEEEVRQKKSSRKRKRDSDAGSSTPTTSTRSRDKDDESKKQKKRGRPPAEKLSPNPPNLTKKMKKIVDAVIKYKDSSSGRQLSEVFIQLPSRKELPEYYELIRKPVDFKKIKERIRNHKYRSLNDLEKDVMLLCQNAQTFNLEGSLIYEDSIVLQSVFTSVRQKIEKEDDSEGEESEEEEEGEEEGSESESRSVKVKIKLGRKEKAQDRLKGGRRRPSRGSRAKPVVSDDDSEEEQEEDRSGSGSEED
Description: SW1573 cells were seeded at 2x10^5Cells/well in a 6-well plate. 2 mL of EMEM medium supplemented with 10% FBS was added to each well and was incubated overnight to allow cell attachment. […] The cells were returned to the incubator and incubated for another 24 hours.
(§1) After 24 hours, cells were harvested, the medium was aspirated, and the cells were rinsed once with 1 mL/well PBS. The PBS was aspirated, and 40 µL/well of RIPA lysis buffer containing protease inhibitors was added. After lysis and centrifugation, total protein extracts were obtained, and protein concentration in the extracts was determined by BCA assay. Protein electrophoresis was performed by SDS-PAGE, followed by constant voltage electrophoresis at 100 V for 60 minutes and the protein was then transferred to a PVDF membrane. The PVDF membrane was blocked in 5% skim milk powder for 1 hour at room temperature. […] After washing the membrane, secondary antibodies were added and incubated at room temperature for 1 hour (protected from the light). After washing, the membrane was exposed using an Odyssey luminometer. Grayscale analysis of bands was performed using Image Studio software.
(§2) The degradation rate (%) of SMARCA2/4 by the PROTAC compounds of the present invention in HeLa cells and SW1573 cells is shown in Table 10. Table 10 Degradation rate of SMARCA2/4 by PROTAC compounds of the present invention in HeLa cells and SW1573 cells (%)

SMARCA2 [3] = target: T1, SMARCA2; experiment: SMARCA2 degradation in HeLa cells (Western blot); design: endogenous in cells; conditions: 4 hours
Description: Test Example 10 Degradation rate (%) of SMARCA2/4 by the PROTAC compounds of the present invention in HeLa cells and SW1573 cells
HeLa cells were seeded at 1.2 x 10^5 cells/well in a 6-well plate. 2 mL of EMEM medium supplemented with 10% FBS was added to each well and the culture dish was incubated overnight to allow the cells to adhere. The next day, 1 µL of 160 µM and 1 µL of 2 µM compound were added to the corresponding wells, resulting in final compound concentrations of 80 nM and 1 nM, respectively, and a final DMSO concentration of 0.05%. The cells were returned to the incubator and incubated for another 4 hours.
After 4 hours, cells were harvested, the culture medium was aspirated, and the cells were rinsed once with 1 mL/well PBS. The PBS was aspirated, and 40 µL/well of RIPA lysis buffer containing protease inhibitors was added. After lysis and centrifugation, total protein extracts were obtained, and protein concentration in the extracts was determined by BCA assay. Protein electrophoresis was performed by SDS-PAGE, followed by constant voltage electrophoresis at 100 V for 60 minutes and the protein was then transferred to a PVDF membrane. The PVDF membrane was blocked in 5% skim milk powder for 1 hour at room temperature. Primary antibodies (SMARCA2: CST#11966S, SMARCA4: CST#49360S, GAPDH: CST#5174S) were added and incubated overnight at 4°C. After washing the membrane, secondary antibodies were added and incubated at room temperature for 1 hour (protected from the light). After washing, the membrane was exposed using an Odyssey luminometer. Grayscale analysis of bands was performed using Image Studio software.
as §2

SMARCA4 [4] = target: T2, SMARCA4; experiment: SMARCA4 degradation in HeLa cells (Western blot); design: endogenous in cells; conditions: 4 hours; for Dmax at 0.001 µM / Dmax at 0.08 µM: read-out: Degradation rate of SMARCA4 in HeLa cells (%)
Description: HeLa cells were seeded at 1.2 x 10^5 cells/well in a 6-well plate. 2 mL of EMEM medium supplemented with 10% FBS was added to each well and the culture dish was incubated overnight to allow the cells to adhere. […] The cells were returned to the incubator and incubated for another 4 hours.
as §1, with “After 4 hours, cells” for “After 24 hours, cells”, “harvested, the culture medium was” for “harvested, the medium was”
as §2

T1 sequence (P51531 whole entry): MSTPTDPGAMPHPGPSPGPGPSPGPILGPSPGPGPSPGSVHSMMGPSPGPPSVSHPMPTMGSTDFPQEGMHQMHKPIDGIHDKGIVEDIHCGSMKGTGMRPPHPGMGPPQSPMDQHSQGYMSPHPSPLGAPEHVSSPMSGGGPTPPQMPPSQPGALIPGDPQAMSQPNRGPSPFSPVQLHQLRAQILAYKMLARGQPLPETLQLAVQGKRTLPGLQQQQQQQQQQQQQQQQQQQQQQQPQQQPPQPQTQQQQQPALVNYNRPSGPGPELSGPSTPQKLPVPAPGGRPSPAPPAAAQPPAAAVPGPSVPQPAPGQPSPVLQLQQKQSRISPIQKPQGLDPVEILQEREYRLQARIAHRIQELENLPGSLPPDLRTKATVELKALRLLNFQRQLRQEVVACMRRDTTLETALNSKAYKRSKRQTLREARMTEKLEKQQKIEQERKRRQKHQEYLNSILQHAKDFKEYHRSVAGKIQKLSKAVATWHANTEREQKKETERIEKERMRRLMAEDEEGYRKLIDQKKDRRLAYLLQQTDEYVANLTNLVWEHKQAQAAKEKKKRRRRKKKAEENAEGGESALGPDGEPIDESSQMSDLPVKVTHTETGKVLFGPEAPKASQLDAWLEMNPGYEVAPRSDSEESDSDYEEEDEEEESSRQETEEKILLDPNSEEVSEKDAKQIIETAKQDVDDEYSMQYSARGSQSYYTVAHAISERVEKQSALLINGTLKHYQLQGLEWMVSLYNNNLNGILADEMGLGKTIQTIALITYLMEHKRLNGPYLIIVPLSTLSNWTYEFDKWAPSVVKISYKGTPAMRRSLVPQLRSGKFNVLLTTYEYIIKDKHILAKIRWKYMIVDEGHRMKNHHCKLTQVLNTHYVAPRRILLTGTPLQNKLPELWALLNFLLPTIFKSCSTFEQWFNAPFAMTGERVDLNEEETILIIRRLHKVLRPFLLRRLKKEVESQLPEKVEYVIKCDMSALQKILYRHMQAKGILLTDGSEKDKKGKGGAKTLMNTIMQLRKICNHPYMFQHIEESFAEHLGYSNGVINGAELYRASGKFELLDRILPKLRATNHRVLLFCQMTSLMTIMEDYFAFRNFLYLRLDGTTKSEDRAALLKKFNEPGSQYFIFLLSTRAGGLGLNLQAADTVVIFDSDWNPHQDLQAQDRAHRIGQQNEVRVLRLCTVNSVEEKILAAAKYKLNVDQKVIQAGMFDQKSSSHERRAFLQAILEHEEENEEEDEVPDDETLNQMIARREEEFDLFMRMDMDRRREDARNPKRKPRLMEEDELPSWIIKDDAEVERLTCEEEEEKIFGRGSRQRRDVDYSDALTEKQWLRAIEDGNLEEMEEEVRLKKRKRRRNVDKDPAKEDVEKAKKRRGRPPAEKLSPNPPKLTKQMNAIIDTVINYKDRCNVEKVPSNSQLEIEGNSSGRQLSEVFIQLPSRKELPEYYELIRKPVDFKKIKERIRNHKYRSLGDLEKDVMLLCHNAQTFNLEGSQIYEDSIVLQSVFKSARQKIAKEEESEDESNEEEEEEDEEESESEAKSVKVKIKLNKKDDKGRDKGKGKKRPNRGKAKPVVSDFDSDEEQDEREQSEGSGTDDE

| Compound | Degradation rate of SMARCA2 in SW1573 cells (%) (SMARCA2 [1]; 1 nM) | Degradation rate of SMARCA2 in SW1573 cells (%) (SMARCA2 [1]; 80 nM) | Dmax at 0.001 µM (SMARCA4 [2]; 1 nM) | Dmax at 0.08 µM (SMARCA4 [2]; 80 nM) | Degradation rate of SMARCA2 in HeLa cells (%) (SMARCA2 [3]; 1 nM) | Degradation rate of SMARCA2 in HeLa cells (%) (SMARCA2 [3]; 80 nM) | Dmax at 0.001 µM (SMARCA4 [4]; 1 nM) | Dmax at 0.08 µM (SMARCA4 [4]; 80 nM) | Degradation rate of SMARCA4 in SW1573 cells (%) (SMARCA4 [2]; 1 nM) | Degradation rate of SMARCA4 in SW1573 cells (%) (SMARCA4 [2]; 80 nM) | Degradation rate of SMARCA4 in HeLa cells (%) (SMARCA4 [4]; 1 nM) | Degradation rate of SMARCA4 in HeLa cells (%) (SMARCA4 [4]; 80 nM) |
| --- | --- | --- | --- | --- | --- | --- | --- | --- | --- | --- | --- | --- |
| Cn1c(=O)n(C2CCC(=O)NC2=O)c2cc3c(cc21)C1(CCN(C(=O)[C@H]2CC[C@H](Cn4cc(-c5cc(-c6ccccc6O)nnc5N)cn4)CC2)CC1)CO3 (stereo partly drawn) [SM-P-28, 3-(1'-((1r,4r)-4-((4-(3-amino-6-(2-hydroxyphenyl)pyridazin-4-yl)-1H-pyrazol-1-yl)methyl)cyclohexane-1-carbonyl)-1-methyl-2-oxo-1,2-dihydro-3H,6H-spiro[benzofuro[5,6-d]imidazole-7,4'-piperidin]-3-yl)piperidine-2,6-dione] | 14% | 77% | 11% | 95% | 17% | 98% | 38% | 99% |  |  |  |  |
| Nc1nnc(-c2ccccc2O)cc1C#CC1CCC2(CC1)CC(N1CCC3(CCc4cc(F)c(C(=O)N[C@H]5CCC(=O)NC5=O)cc4O3)CC1)C2 (stereo partly drawn) [SM-P-12] | 32% | 32% | 28% | 5% | 6% | 14% | 17% | 24% |  |  |  |  |
| Nc1nnc(-c2ccccc2O)cc1C#CC1CCC2(CC1)CC(N1CCN3c4ccc(C(=O)N[C@H]5CCC(=O)NC5=O)cc4OCC[C@H]3C1)C2 (stereo partly drawn) [SM-P-13, (S)-3-(7-((3-amino-6-(2-hydroxyphenyl)pyridazin-4-yl)ethynyl)spiro[3.5]nonan-2-yl)-N-((S)-2,6-dioxopyrimidin-3-yl)-2,3,4,4a,5,6-hexahydro-1H-benzo[b]pyrazino[1,2-d] [1,4]oxythiophene-9-carboxamide] | 32% | 88% |  |  | 38% | 96% |  |  | -11% | 32% | 19% | 65% |
